Patent publication US9192656B2, “Methods and compositions for the treatment of cancer” (QUINTESSENCE BIOSCIENCES, INC., priority 2006, dated 2015)

Columns and labels:
[1] = tested on: human prostate cancer cell line (DU145); assay: In vivo inhibition of tumor growth, DU145 xenograft; parameters: species or system human tumor cells in nude mice; conditions: for Starting volume: at start
Protocol: (§1) Cells from a non-small cell lung cancer cell line (A549) were grown in nine T175 flasks in F12K media and 10% fetal calf serum until the cells were confluent. 4.5×10^6 cells (in 100 microliters) were injected into the right rear flank of 4-5 week old male homozygous (nu/nu) nude mice (Harlan, Madison Wis.). Tumors were allowed to grow to an average size of ≧75 mm^3 before treatments were initiated. Animals of each tumor type, with the properly sized tumors, were divided into treatment groups, including one set of animals treated weekly with vehicle (phosphate buffered saline, PBS). The vehicle and the test agents were all administered by intraperitoneal injection. Each animal was weighed twice a week during treatment. The tumors were measured twice weekly using calipers. Tumor volume (mm^3) was determined by using the formula for an ellipsoid sphere: […]
(§2) The percent tumor growth inhibition (% TGI) is calculated by: […]
This xenograft model was set up as in the previous example except that a human prostate cancer cell line (DU145) was used. The efficacy of wild type human RNase 1 is shown relative to docetaxel. The RNase 1 was administered at 75 mg per kg of body weight of the animal (75 mg/kg 1×wk), while the docetaxel was used at 8 mg/kg once a week. The value of n represents the number of animals in the specific treatment arm of the experiment.
(§3) The xenograft model of this example was set up as in the previous example except that a human prostate cancer cell line (DU145) was used. The efficacy of wild type human RNase 1 is shown. The RNase 1 was administered at 75 mg per kg of body weight of the animal once per week (75 mg/kg 1×wk). The value of n represents the number of animals in the specific treatment arm of the experiment.
as §3, with “example.” for “example except that a human prostate cancer cell line (DU145) was used.”, “three different doses: (1) 15” for “75”, “(15” for “(75”, “1×wk), (2) 75 mg/kg 1×wk, or (3) 300 mg/kg 1×wk.” for “1×wk).”

[2] = Clinical chemistry and complete blood count plus platelets (DU145 xenograft mice); type: in vivo
Protocol: Clinical chemistry and a complete blood count (CBC) plus platelets were performed on whole blood and serum samples collected from the mice 24 hours after the last treatment of the prostate xenograft model above. […] Creatinine was also tested and found not to differ. The levels of the liver enzymes, gamma glutamyl transferase (GGT) and alanine transaminase (ALT) in all treatment groups were similar (GGT data not shown.). The values were determined for the various treatment groups of the prostate (DU145) xenograft study for clinical chemistry (A., B.), complete blood count (C., D.), and platelets (F.). Abbreviations: TCO2, amount of bicarbonate ion (HCO3^−); Anion Gap, [Na+K]—[Cl+HCO3]; ALT, alanine aminotransferase; WBC, white blood count; RBC, red blood count; HGB, hemoglobin; RBC HGB, (CHCM×RBC×MCV)/1000); MCH, mean corpuscular hemoglobin; MCHC, mean corpuscular hemoglobin concentration; RDW, red cell distribution width; MPV, mean platelet volume; HCT, hematocrit; MCV, mean corpuscular volume.

[3] = tested on: human pancreatic cancer cell line (B×PC-3); assay: In vivo inhibition of tumor growth, BxPC-3 xenograft; parameters: species or system human tumor cells in nude mice; conditions: for Starting volume: at start
Protocol: as §1, §2
The xenograft model of this example was set up as in the previous example except that a human pancreatic cancer cell line (B×PC-3) was used. The efficacy of wild type human RNase 1 is shown relative to gemcite. The RNase 1 was administered at 15 mg per kg of body weight of the animal five times per week (15 mg/kg qd×5), while the gemcite was used at 60 mg/kg twice a week. The value of n represents the number of animals in the specific treatment arm of the experiment.
as §3, with “pancreatic” for “prostate”, “(B×PC-3)” for “(DU145)”, “three different doses: (1) 30” for “75”, “(30” for “(75”, “1×wk), (2) 75 mg/kg 1×wk, or (3) 150 mg/kg 1×wk.” for “1×wk).”

[4] = tested on: human breast cancer cell line (MDA-MB-231); assay: In vivo inhibition of tumor growth, MDA-MB-231 xenograft; parameters: species or system human tumor cells in nude mice; conditions: Example 10, Table 14, female mice, RNase 1 75 mg/kg 1×wk, doxorubicin 3 mg/kg once per week
Protocol: as §1, §2
The xenograft model of this example was set up as in the previous example except that a human breast cancer cell line (MDA-MB-231) and female mice were used. The efficacy of wild type human RNase 1 is shown relative to doxorubicin. The RNase 1 was administered at 75 mg per kg of body weight of the animal once per week (75 mg/kg 1×wk), while the doxorubicin was given at 3 mg/kg once per week. The value of n represents the number of animals in the specific treatment arm of the experiment.

[5] = Example 4, Table 8, RNase 1 75 mg/kg 1×wk, docetaxel 8 mg/kg once a week
[6] = Example 8, Table 12, 75 mg/kg 1×wk
[7] = Example 9, Table 13, set up as in the previous example, 15 mg/kg 1×wk
[8] = Example 9, Table 13, set up as in the previous example, 75 mg/kg 1×wk
[9] = Example 9, Table 13, set up as in the previous example, 300 mg/kg 1×wk
[10] = Example 5, Table 9, RNase 1 15 mg/kg qd×5, gemcite 60 mg/kg twice a week
[11] = Example 7, Table 11, 30 mg/kg 1×wk
[12] = Example 7, Table 11, 75 mg/kg 1×wk
[13] = Example 7, Table 11, 150 mg/kg 1×wk

Substance: Wild type human RNase 1: wild type human ribonuclease 1 (human pancreatic RNase), SEQ ID NO:1
- % TGI [1, 5]: 80%
- (Final − start) [1, 5]: 478 mm^3
- (Final − start)/Control [1, 5]: 0.20
- Final volume [1, 5]: 539 mm^3
- Starting volume [1, 5]: 61 mm^3
- % TGI [1, 6]: 77%
- (Final − start) [1, 6]: 607 mm^3
- (Final − start)/Control [1, 6]: 0.23
- Final volume [1, 6]: 669 mm^3
- Starting volume [1, 6]: 62 mm^3
- % TGI [1, 7]: 0%
- (Final − start) [1, 7]: 1136 mm^3
- (Final − start)/Control [1, 7]: 1
- Final volume [1, 7]: 1246 mm^3
- Starting volume [1, 7]: 110 mm^3
- % TGI [1, 8]: 61%
- (Final − start) [1, 8]: 445 mm^3
- (Final − start)/Control [1, 8]: 0.39
- Final volume [1, 8]: 559 mm^3
- Starting volume [1, 8]: 114 mm^3
- % TGI [1, 9]: 43%
- (Final − start) [1, 9]: 652 mm^3
- (Final − start)/Control [1, 9]: 0.57
- Final volume [1, 9]: 766 mm^3
- Starting volume [1, 9]: 114 mm^3
- Creatinine versus vehicle ([2]; 24 hours after the last treatment): not to differ
- Clinical chemistry and complete blood count plus platelets, all tests, versus vehicle ([2]; whole blood and serum 24 hours after the last treatment, Mann-Whitney U test): not to be significantly different
- % TGI [3, 10]: 24%
- (Final − start) [3, 10]: 822 mm^3
- (Final − start)/Control [3, 10]: 0.76
- Final volume [3, 10]: 899 mm^3
- Starting volume [3, 10]: 77 mm^3
- % TGI [3, 11]: 3%
- (Final − start) [3, 11]: 554 mm^3
- (Final − start)/Control [3, 11]: 0.97
- Final volume [3, 11]: 632 mm^3
- Starting volume [3, 11]: 78 mm^3
- % TGI [3, 12]: 43%
- (Final − start) [3, 12]: 323 mm^3
- (Final − start)/Control [3, 12]: 0.57
- Final volume [3, 12]: 392 mm^3
- Starting volume [3, 12]: 69 mm^3
- % TGI [3, 13]: 29%
- (Final − start) [3, 13]: 402 mm^3
- (Final − start)/Control [3, 13]: 0.71
- Final volume [3, 13]: 471 mm^3
- Starting volume [3, 13]: 69 mm^3
- % TGI [4]: 64%
- (Final − start) [4]: 50 mm^3
- (Final − start)/Control [4]: 0.36
- Final volume [4]: 121 mm^3
- Starting volume ([4]; at start): 71 mm^3
